Data from PubChem BioAssay AID328 (DTP/NCI, 2004).
Values joined by “and” are separate entries in the source; they are usually repeats but may differ in a detail not shown here. Equal values may be shown once. Toxic doses and inconclusive results are not listed.

System: BDF1 mice, P388 leukemia ip, median survival T/C
Assay: NCI In Vivo Anticancer Drug Screen. Data for tumor model P388 Leukemia (intraperitoneal) in B6D2F1 (BDF1) mice
Settings: endpoint: median survival time, higher = longer survival
Summary of the method: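 Compound-treated tumour-bearing mice were compared with vehicle-treated controls. Survival was recorded, and the value is the treated-group measurement divided by the control-group measurement (T/C).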

[1] = dose: 25.0 mg/kg/injection, schedule: Q01DX009 (ip), vehicle: Klucel (hydroxypropylcellulose) (HPC)
[2] = dose: 50.0 mg/kg/injection, schedule: Q01DX009 (ip), vehicle: Klucel (hydroxypropylcellulose) (HPC)
[3] = dose: 50.0 mg/kg/injection, schedule: Q01DX009 (ip), vehicle: saline with Tween-80
[4] = dose: 100.0 mg/kg/injection, schedule: Q01DX009 (ip), vehicle: saline with Tween-80
[5] = dose: 50.0 mg/kg/injection, schedule: Q01DX009 (ip), vehicle: saline
[6] = dose: 200.0 mg/kg/injection, schedule: Q01DX009 (ip), vehicle: saline with Tween-80
[7] = dose: 50.0 mg/kg/injection, schedule: Q04DX003 (ip), vehicle: water
[8] = dose: 100.0 mg/kg/injection, schedule: Q04DX003 (ip), vehicle: water
[9] = dose: 200.0 mg/kg/injection, schedule: Q04DX003 (ip), vehicle: water

CS(=O)(=O)OCCC(=O)NCNC(=O)CCOS(C)(=O)=O
T/C (dose: 9.0 mg/kg/injection, schedule: Q04DX003 (ip), vehicle: Klucel (hydroxypropylcellulose) (HPC)): 100 % of control
T/C (dose: 12.0 mg/kg/injection, schedule: Q04DX003 (ip), vehicle: Klucel (hydroxypropylcellulose) (HPC)): 113 % of control
T/C (dose: 12.5 mg/kg/injection, schedule: Q01DX009 (ip), vehicle: Klucel (hydroxypropylcellulose) (HPC)): 150 % of control
T/C (dose: 13.0 mg/kg/injection, schedule: Q04DX003 (ip), vehicle: Klucel (hydroxypropylcellulose) (HPC)): 113 % of control
T/C (dose: 22.0 mg/kg/injection, schedule: Q01DX009 (ip), vehicle: Klucel (hydroxypropylcellulose) (HPC)): 156 % of control
T/C [1]: 172 % of control
T/C (dose: 25.0 mg/kg/injection, schedule: Q04DX003 (ip), vehicle: Klucel (hydroxypropylcellulose) (HPC)): 163 % of control
T/C (dose: 33.0 mg/kg/injection, schedule: Q01DX009 (ip), vehicle: Klucel (hydroxypropylcellulose) (HPC)): 176 % of control
T/C (dose: 33.0 mg/kg/injection, schedule: Q04DX003 (ip), vehicle: Klucel (hydroxypropylcellulose) (HPC)): 155 % of control and 171 % of control
T/C [2]: 168 % of control and 218 % of control
T/C (dose: 50.0 mg/kg/injection, schedule: Q04DX003 (ip), vehicle: Klucel (hydroxypropylcellulose) (HPC)): 181 % of control and 185 % of control and 195 % of control
T/C (dose: 75.0 mg/kg/injection, schedule: Q01DX009 (ip), vehicle: Klucel (hydroxypropylcellulose) (HPC)): 124 % of control
T/C (dose: 75.0 mg/kg/injection, schedule: Q04DX003 (ip), vehicle: Klucel (hydroxypropylcellulose) (HPC)): 190 % of control and 214 % of control

CC(C)=CCC1=C(O)c2ccccc2C(=O)C1=O
T/C (dose: 25.0 mg/kg/injection, schedule: Q#A X018 (oral), vehicle: other): 100 % of control
T/C (dose: 50.0 mg/kg/injection, schedule: Q01DX010 (ip), vehicle: other): 104 % of control
T/C (dose: 50.0 mg/kg/injection, schedule: Q01DX010 (ip), vehicle: water): 118 % of control
T/C (dose: 50.0 mg/kg/injection, schedule: Q#A X018 (oral), vehicle: other): 100 % of control
T/C (dose: 50.0 mg/kg/injection, schedule: Q#A X020 (ip), vehicle: other): 100 % of control
T/C (dose: 75.0 mg/kg/injection, schedule: Q01DX010 (ip), vehicle: water): 100 % of control and 109 % of control
T/C (dose: 100.0 mg/kg/injection, schedule: Q01DX010 (ip), vehicle: other): 118 % of control
T/C (dose: 100.0 mg/kg/injection, schedule: Q#A X018 (oral), vehicle: other): 100 % of control
T/C (dose: 100.0 mg/kg/injection, schedule: Q#A X020 (ip), vehicle: other): 90 % of control
T/C (dose: 125.0 mg/kg/injection, schedule: Q01DX010 (ip), vehicle: water): 95 % of control
T/C (dose: 150.0 mg/kg/injection, schedule: Q01DX010 (ip), vehicle: water): 90 % of control and 104 % of control
T/C (dose: 150.0 mg/kg/injection, schedule: Q#A X018 (ip), vehicle: other): 100 % of control
T/C (dose: 150.0 mg/kg/injection, schedule: Q#A X020 (ip), vehicle: other): 120 % of control

O=C=Nc1ccc(CCc2ccc(N=C=O)cc2)cc1
T/C [3]: 110 % of control
T/C [4]: 120 % of control

CC1(C)OS2(c3ccccc3)OC(=O)c3cccc1c32 (configuration not stated)
T/C (dose: 50.0 mg/kg/injection, schedule: Q04DX002 (ip), vehicle: saline): 94 % of control
T/C (dose: 100.0 mg/kg/injection, schedule: Q04DX002 (ip), vehicle: saline): 100 % of control
T/C (dose: 200.0 mg/kg/injection, schedule: Q04DX002 (ip), vehicle: saline): 100 % of control

Clc1nn2cnnc2c2ccccc12
T/C (dose: 5.0 mg/kg/injection, schedule: Q01DX009 (ip), vehicle: saline): 101 % of control
T/C (dose: 10.0 mg/kg/injection, schedule: Q01DX009 (ip), vehicle: saline): 101 % of control

O=[N+]([O-])CC(O)c1ccc2ccccc2n1 (configuration not stated)
T/C (dose: 25.0 mg/kg/injection, schedule: Q01DX009 (ip), vehicle: saline): 86 % of control
T/C [5]: 86 % of control
T/C (dose: 50.0 mg/kg/injection, schedule: Q04DX003 (ip), vehicle: saline): 109 % of control
T/C (dose: 100.0 mg/kg/injection, schedule: Q01DX009 (ip), vehicle: saline): 89 % of control
T/C (dose: 100.0 mg/kg/injection, schedule: Q04DX003 (ip), vehicle: saline): 95 % of control
T/C (dose: 200.0 mg/kg/injection, schedule: Q04DX003 (ip), vehicle: saline): 90 % of control

CC1(c2cccs2)NC(=O)N(Cl)C1=O (configuration not stated)
T/C (dose: 25.0 mg/kg/injection, schedule: Q01DX009 (ip), vehicle: saline with Tween-80): 97 % of control
T/C (dose: 25.0 mg/kg/injection, schedule: Q04DX003 (ip), vehicle: saline with Tween-80): 94 % of control
T/C [3]: 97 % of control
T/C (dose: 50.0 mg/kg/injection, schedule: Q04DX003 (ip), vehicle: saline with Tween-80): 102 % of control
T/C [4]: 108 % of control
T/C (dose: 100.0 mg/kg/injection, schedule: Q04DX003 (ip), vehicle: saline with Tween-80): 104 % of control and 107 % of control
T/C [6]: 108 % of control
T/C (dose: 200.0 mg/kg/injection, schedule: Q04DX003 (ip), vehicle: saline with Tween-80): 109 % of control
T/C (dose: 400.0 mg/kg/injection, schedule: Q04DX003 (ip), vehicle: saline with Tween-80): 107 % of control

COc1cc(/C=C/C(=O)c2ccc3c(c2)OCO3)ccc1OCc1ccccc1
T/C (dose: 6.25 mg/kg/injection, schedule: Q01DX009 (ip), vehicle: water): 100 % of control
T/C (dose: 12.5 mg/kg/injection, schedule: Q01DX009 (ip), vehicle: water): 100 % of control
T/C (dose: 25.0 mg/kg/injection, schedule: Q01DX009 (ip), vehicle: water): 106 % of control and 108 % of control
T/C (dose: 50.0 mg/kg/injection, schedule: Q01DX009 (ip), vehicle: water): 95 % of control and 110 % of control
T/C [7]: 86 % of control
T/C (dose: 100.0 mg/kg/injection, schedule: Q01DX009 (ip), vehicle: water): 95 % of control
T/C [8]: 100 % of control
T/C (dose: 200.0 mg/kg/injection, schedule: Q01DX009 (ip), vehicle: water): 97 % of control and 110 % of control
T/C [9]: 87 % of control
T/C (dose: 400.0 mg/kg/injection, schedule: Q04DX003 (ip), vehicle: water): 89 % of control

COc1ccc(CC2C(=O)NC(C)C(=O)N(C)C3C(=O)N(C)C(Cc4ccc(O)c(c4)Oc4ccc(cc4)C3O)C(=O)NC(C)C(=O)NC(C)C(=O)N2C)cc1 (configuration not stated) (tested in a mixture with another compound)
T/C (dose: 0.5 mg/kg/injection, schedule: Q01DX009 (ip), vehicle: alcohol): 179 % of control
T/C (dose: 0.5 mg/kg/injection, schedule: Q01DX009 (ip), vehicle: carboxymethylcellulose (CMC)): 207 % of control
T/C (dose: 1.0 mg/kg/injection, schedule: Q01DX009 (ip), vehicle: alcohol): 158 % of control
T/C (dose: 1.0 mg/kg/injection, schedule: Q01DX009 (ip), vehicle: carboxymethylcellulose (CMC)): 182 % of control
T/C (dose: 2.0 mg/kg/injection, schedule: Q01DX009 (ip), vehicle: alcohol): 208 % of control
T/C (dose: 2.0 mg/kg/injection, schedule: Q01DX009 (ip), vehicle: carboxymethylcellulose (CMC)): 207 % of control

CCCc1nc2c(OC)ccc(OC)c2nc1C
T/C [1]: 100 % of control
T/C [2]: 100 % of control
T/C (dose: 100.0 mg/kg/injection, schedule: Q01DX009 (ip), vehicle: Klucel (hydroxypropylcellulose) (HPC)): 100 % of control
T/C (dose: 150.0 mg/kg/injection, schedule: Q01DX009 (ip), vehicle: Klucel (hydroxypropylcellulose) (HPC)): 90 % of control

CCOP1(=O)N(C)CCN1C
T/C [5]: 95 % of control

c1ccc(P(OC2CCCCC2)OC2CCCCC2)cc1
T/C [3]: 109 % of control
T/C [4]: 109 % of control
T/C [6]: 110 % of control

CCOC(=O)C(C(=O)COC)C(=O)OCC
T/C (dose: 12.5 mg/kg/injection, schedule: Q04DX003 (ip), vehicle: water): 100 % of control
T/C (dose: 25.0 mg/kg/injection, schedule: Q04DX003 (ip), vehicle: water): 108 % of control
T/C [7]: 105 % of control
T/C [8]: 115 % of control
T/C [9]: 115 % of control
